From patent US12312333B2, “SK channel positive allosteric modulators” (Chapman University, priority 2021, dated 2025) come the findings set out here.

For the assay, the target named is T1, rat KCa2.2a (UniProt P0DP23+P70604).
T1 construct: expressed in transfected cells; host or cells: HEK293
Description: Inside-out patch-clamp potentiation of KCa2.2a channels expressed in HEK293 cells. The format is cell-based. The conditions noted are these: for activity / potency on KCa2.2a channels / EC50: inside-out patch; for EC50: HEK293, 0.15 μM Ca2+, current at −90 mV, read-out: EC50 (mean ± SEM, μM) on potentiating KCa2.2a channels; for efficacy (Emax) on KCa2.2a channels: normalized to 10 μM Ca2+. The method, then:
The impact of adding one substituent group at C4 of the cyclohexane moiety of CyPPA with either electron donating (OH (2a), NH2 (2b), CH2OH (2c), and OCH3 (2d)) or electron-withdrawing groups (F (2e) and NO2 (2f)) was explored. The potency of the newly synthesized compounds compared to the template CyPPA was measured via inside-out patch clamp electrophysiology recordings with KCa2.2a channels heterologously expressed in HEK293 cells (FIG. 1A). […] The responses induced by 10 μM Ca^2+ are considered the maximal currents of the KCa2.2a channels. To evaluate the efficacy (Emax) of compounds on KCa2.2a channels, the current amplitudes at −90 mV in response to the maximal concentration of compounds were normalized to that obtained at 10 μM Ca^2+ (I/Imax (%), FIG. 1C).
The effect of newly synthesized compounds on the KCa2.x/KCa3.1 channels was investigated as previously described (Nam, Y. W.; et al, Acta Physiol (Oxf) 2020, e13552; Nam, Y. W.; et al. Scientific reports 2018, 8 (1), 10749). Briefly, the rat KCa2.2a, human KCa2.1, human KCa2.3 or human KCa3.1 channels cDNA constructs were either generated in-house or through molecular cloning services (Genscript). The channel cDNAs, along with CaM and GFP, at a ratio of 7:4:2 (ORF ratios), were transfected into HEK293 cells by the calcium-phosphate method. KCa currents were recorded 1-2 days after transfection, with an Axon200B amplifier (Molecular Devices) at room temperature. The resistance of the patch electrodes ranged from 3-5 MΩ. The pipette solution contained (in mM): 140 KCl, 10 Hepes (pH 7.4), 1 MgSO4. The bath solution containing (in mM): 140 KCl, 10 Hepes (pH 7.2), 1 EGTA, 0.1 Dibromo-BAPTA, and 1 HEDTA was mixed with Ca^2+ to obtain the desired free Ca^2+ concentrations, calculated using the software by Chris Patton of Stanford University (https://somapp.ucdmc.ucdavis.edu/pharmacology/bers/maxchelator/webmaxc/webmaxcS.htm). The Ca^2+ concentrations were verified using a Ca^2+ calibration buffer kit (Thermo Fisher Scientific). Briefly, a standard curve was generated using the Ca^2+ buffers from the kit and a fluorescence Ca^2+ indicator. Then, the Ca^2+ concentrations of the bath solution were determined through interpolation on the standard curve.
High resistance seals (>1 GΩ) were formed before inside-out patches were obtained. The seal resistance of inside-out patches was >1 GΩ, when the intracellular face was initially exposed to a zero-Ca^2+ bath solution. Currents were recorded by repetitive 1-s-voltage ramps from −100 mV to +100 mV from a holding potential of 0 mV. The currents were filtered at 2 kHz and digitized at a sampling frequency of 10 kHz. At the end of experiment, the integrity of the patch was examined by switching the bath solution back to the zero-Ca^2+ buffer. Data from patches, which maintained the seal resistance (>1 GΩ) after solution changes, were used for further analysis.
To measure the effect of CyPPA (Alomone Labs) and newly synthesized compounds, the intracellular face was exposed to bath solutions with 0.15 μM Ca^2+. One minute after switching of bath solutions, ten sweeps with a 1-s interval were recorded at a series of concentrations of compound in the presence of 0.15 μM Ca^2+. The maximal KCa2.x/KCa3.1 current in response to 10 μM Ca^2+ was then recorded.
Patch-clamp recordings were analyzed using Clampfit 10.5 (Molecular Devices LLC) and concentration-response curves were analyzed in GraphPad Prism 9.0.2 (GraphPad Software Inc.). To construct the concentration-dependent potentiation of channel activities by compound, the current amplitudes at −90 mV in response to various concentrations of the compound were normalized to that obtained at a maximal concentration of compound. The normalized currents were plotted as a function of the concentrations of the compound. EC50 values and Hill coefficients were determined by fitting the data points to a standard concentration-response curve (Y=100/(1+(X/EC50)^−Hill)). […]
On the technique in general: Patch clamp records ionic current or voltage across a cell membrane.

What is called EC50 is the concentration at which the effect is half-maximal.

For `Cc1cc(Nc2cc(Cl)ccc2F)nc(-c2coc(C)n2)n1` [Compound 6a, N-(5-Chloro-2-fluorophenyl)-6-methyl-2-(2-methyloxazol-4-yl)pyrimidin-4-amine], the EC50 was determined as 13.8 ± 1.68 µM and the “efficacy (Emax) on KCa2.2a channels” value is “retained their efficacy”. For the same molecule, under “HEK293”, the “activity / potency on KCa2.2a channels” value was “lower potency than 2q”.

For “N^1-(3-Chloro-4-(trifluoromethyl)phenyl)-6-(3,5-dimethyl-1H-pyrazol-1-yl)pyrimidine-2,4-diamine [Compound 3g]”, the 50% effective concentration (EC50) is above 100 µM.

For the molecule `COC1CCC(Nc2cc(C)nc(-n3nc(C)cc3C)n2)CC1` (stereo not drawn) [Compound 2d, 2-(3,5-Dimethyl-1H-pyrazol-1-yl)-N-(4-methoxycyclohexyl)-6-methylpyrimidin-4-amine], the concentration giving a half-maximal response (EC50) was found to be 49.7 ± 4.38 µM. Also, for the setting “HEK293, current at −90 mV at maximal compound concentration normalized to 10 μM Ca2+, read-out: Emax on KCa2.2a channels (I/Imax)”, the Emax worked out at 77.3 ± 4.95%. Consider `Cc1cn(-c2nc(C)cc(Nc3ccc(F)c(Cl)c3)n2)cn1` [Compound 5b, N-(3-Chloro-4-fluorophenyl)-6-methyl-2-(4-methyl-1H-imidazol-1-yl)pyrimidin-4-amine], for which the EC50 is 38.8 ± 4.02 µM and the “efficacy (Emax) on KCa2.2a channels” value is “decreased compared with 2o”. Further, under “HEK293”, the “activity / potency on KCa2.2a channels” value is “drastically reduced compared with 2o”. Consider `Cc1cc(Nc2cc(Cl)cc(C(F)(F)F)c2)nc(-n2nc(C)cc2C)n1` [Compound 2u, N-(3-Chloro-5-(trifluoromethyl)phenyl)-2-(3,5-dimethyl-1H-pyrazol-1-yl)-6-methylpyrimidin-4-amine], for which the EC50 is above 100 µM. As for “N^1-(4-Chloro-2-fluorophenyl)-6-(3,5-dimethyl-1H-pyrazol-1-yl)pyrimidine-2,4-diamine [Compound 3d]”, the EC50 is above 100 µM.

For the molecule `Cc1cc(Nc2cc(F)ccc2F)nc(-n2nc(C)cc2C)n1` [Compound 2n, N-(2,5-Difluorophenyl)-2-(3,5-dimethyl-1H-pyrazol-1-yl)-6-methylpyrimidin-4-amine], the concentration for a half-maximal effect (EC50) came to 1.89 ± 0.16 µM. The same measure, in the same setting: then `Cc1cc(NC(Cc2ccc(C#N)cc2)C(=O)O)nc(-n2nc(C)cc2C)n1` (stereo not drawn) [Compound 2h, 3-(4-Cyanophenyl)-2-((2-(3,5-dimethyl-1H-pyrazol-1-yl)-6-methylpyrimidin-4-yl)amino)propanoic acid], with above 100 µM; and `COc1cc2nc(Nc3cc(C)nc(-n4nc(C)cc4C)n3)[nH]c2cc1OC` [Compound 2w, N-(2-(3,5-Dimethyl-1H-pyrazol-1-yl)-6-methylpyrimidin-4-yl)-5,6-dimethoxy-1H-benzo[d]imidazol-2-amine], with above 100 µM. Regarding `Cc1cc(Nc2ccc(S)cc2)nc(-n2nc(C)cc2C)n1` [Compound 2k, 4-((2-(3,5-Dimethyl-1H-pyrazol-1-yl)-6-methylpyrimidin-4-yl)amino)-benzenethiol], the EC50 is above 100 µM. Moreover, for the setting “HEK293”, the “activity / potency on KCa2.2a channels” value was “inactive”. Turning to `Cc1cc(NC2CCC(CO)CC2)nc(-n2nc(C)cc2C)n1` (stereo not drawn) [Compound 2c, (4-((2-(3,5-Dimethyl-1H-pyrazol-1-yl)-6-methylpyrimidin-4-yl)amino)cyclohexyl) methanol], the EC50 is above 100 µM. For “N^1-(3-Chlorophenyl)-6-(3,5-dimethyl-1H-pyrazol-1-yl)pyrimidine-2,4-diamine [Compound 3a]”, the concentration giving a half-maximal response (EC50) was above 100 µM. With “N^1-(3-Chloro-4-fluorophenyl)-2-(3,5-dimethyl-1H-pyrazol-1-yl)pyrimidine-4,6-diamine [Compound 4]”, the EC50 was 6.59 ± 0.64 µM and the “efficacy (Emax) on KCa2.2a channels” value is given as “retaining their efficacy”. In addition, the “activity / potency on KCa2.2a channels” value (HEK293) is given as “reduced potency”.

As to `Cc1cc(Nc2ccc(F)c(Cl)c2)nc(-c2coc(C)n2)n1` [Compound 6b, N-(3-Chloro-4-fluorophenyl)-6-methyl-2-(2-methyloxazol-4-yl)pyrimidin-4-amine], the EC50 was found to be 3.59 ± 0.33 µM and the “efficacy (Emax) on KCa2.2a channels” value is “retained their efficacy”.

With `Cc1cc(Nc2ccc(C(F)(F)F)c(Cl)c2)nc(-n2nc(C)cc2C)n1` [Compound 2t, N-(3-Chloro-4-(trifluoromethyl)phenyl)-2-(3,5-dimethyl-1H-pyrazol-1-yl)-6-methyl-pyrimidin-4-amine], the EC50 was found to be 3.27 ± 0.3 µM.

For the molecule `Cc1cc(NCCc2ccc([N+](=O)[O-])cc2)nc(-n2nc(C)cc2C)n1` [Compound 2g, 2-(3,5-Dimethyl-1H-pyrazol-1-yl)-6-methyl-N-(4-nitrophenethyl)pyrimidin-4-amine], the EC50 is above 100 µM. On the same count and under the same terms, then `Cc1cc(NC2CCC(F)CC2)nc(-n2nc(C)cc2C)n1` (stereo not drawn) [Compound 2e, 2-(3,5-Dimethyl-1H-pyrazol-1-yl)-N-(4-fluorocyclohexyl)-6-methylpyrimidin-4-amine], with above 100 µM; and `Cc1cc(Nc2cc(F)ccc2Cl)nc(-n2nc(C)cc2C)n1` [Compound 2r, N-(2-Chloro-5-fluorophenyl)-2-(3,5-dimethyl-1H-pyrazol-1-yl)-6-methylpyrimidin-4-amine], with 2.97 ± 0.27 µM; and `Cc1cc(N[C@@H](Cc2ccc(O)cc2)C(=O)O)nc(-n2nc(C)cc2C)n1` [Compound 2i, (2-(3,5-Dimethyl-1H-pyrazol-1-yl)-6-methylpyrimidin-4-yl)tyrosine], with above 100 µM. Still for that read-out and setting: the same measure for `Cc1cc(Nc2cccc(F)c2F)nc(-n2nc(C)cc2C)n1` [Compound 2m, N-(2,3-Difluorophenyl)-2-(3,5-dimethyl-1H-pyrazol-1-yl)-6-methyl-pyrimidin-4-amine]: 5.03 ± 0.59 µM; for “N^1-(5-Chloro-2-fluorophenyl)-6-(3,5-dimethyl-1H-pyrazol-1-yl)pyrimidine-2,4-diamine [Compound 3c]”: above 100 µM. Take `Cc1cc(C)n(-c2cc(C)c(Nc3ccc(F)c(Cl)c3)nn2)n1` [Compound 7, N-(3-Chloro-4-fluorophenyl)-6-(3,5-dimethyl-1H-pyrazol-1-yl)-4-methylpyridazin-3-amine]: the EC50 was found to be 4.32 ± 0.32 µM and the “efficacy (Emax) on KCa2.2a channels” value was “retaining their efficacy”. Further, the “activity / potency on KCa2.2a channels” value (HEK293) is “reduced potency”. On to `Cc1cc(Nc2ccc(Cl)cc2F)nc(-n2nc(C)cc2C)n1` [Compound 2p, N-(4-Chloro-2-fluorophenyl)-2-(3,5-dimethyl-1H-pyrazol-1-yl)-6-methyl-pyrimidin-4-amine], for which the EC50 came out at 1.99 ± 0.11 µM.

As for “N^1-(2,5-Difluorophenyl)-6-(3,5-dimethyl-1H-pyrazol-1-yl)pyrimidine-2,4-diamine [Compound 3f]”, the EC50 is above 100 µM.

As to `Cc1cc(Nc2ccc([N+](=O)[O-])cc2)nc(-n2nc(C)cc2C)n1` [Compound 2l, 2-(3,5-Dimethyl-1H-pyrazol-1-yl)-6-methyl-N-(4-nitrophenyl)pyrimidin-4-amine], the EC50 is above 100 µM. For the same molecule, the “activity / potency on KCa2.2a channels” value (HEK293) is “inactive”.

As for “N^1-(2-Chloro-5-fluorophenyl)-6-(3,5-dimethyl-1H-pyrazol-1-yl)pyrimidine-2,4-diamine [Compound 3e]”, the EC50 is above 100 µM. The same measure, in the same setting: then `Cc1cc(NC2CCC(O)CC2)nc(-n2nc(C)cc2C)n1` (stereo not drawn) [Compound 2a, 4-((2-(3,5-Dimethyl-1H-pyrazol-1-yl)-6-methylpyrimidin-4-yl)amino)cyclohexan-1-ol], with above 100 µM.
